US20060166957A1, “Methods of treating obesity and related disorders using tellurium selenium compounds” (priority 2003, published 2006)
Like-named read-outs stand apart in the source and are kept apart here.

Experiments:
[1] = test system: diet-induced obese C57BL/6 mice; experiment: Body weight of diet-induced obese C57BL/6 mice injected daily with AS101; assay type: in vivo
Description: Since the obesity of ob/ob mice is of genetic origin, whereas obesity among human populations is largely due to excess eating over energy expenditure, the effect of AS101 on body weight was studied in diet-induced obese mice. Female mice were fed for 10 weeks with a high fat diet, resulting in moderate obesity (average weight 37 g). Mice were placed in metabolic cages and injected daily with either saline (Control group, 3 mice) or AS 101 (0.5 mg/kg body weight in saline, AS101 group, 3 mice). High fat diet was continued and the body weight was determined daily. […] Therefore, AS101 is an effective medicament for the treatment of diet-induced obesity.

ob/ob mice = experiment: AS101 in drinking water of ob/ob mice in metabolic cages: body weight, food intake, blood glucose; assay type: in vivo
Description: Female ob/ob mice (8 weeks old) were placed in metabolic cages and were given free drinking water and chow. After 48 h, one group of 3 mice (the Control group) continued to receive water and chow. A second group of 3 mice received drinking water containing AS 101 (7 mg/L) in addition to the standard chow. The experiment was continued for 18 days and body weights were measured daily. On the average the mice consumed about 1.5 ml of water per 24 h, corresponding to 10 microgram AS101 per mouse per day. This value corresponds to 0.25 mg/kg body weight per 24 h.
On the average, food consumption was reduced by 26±7% (p<0.02, n=16, FIG. 2).
On the last day of treatment, tail blood was withdrawn and blood glucose was determined in three control mice and three mice of the AS101 group.

[2] = test system: Swiss 3T3-F442A murine pre-adipocytes; experiment: Differentiation of pre-adipocytes into mature adipocytes, oil red staining; assay type: cell-based; details: AS101 0.2 micrograms/ml, six days in DMEM with 10% FBS, oil red stain, FIG. 6
Description: To gain insight on the mechanism by which AS101 affects the adipose tissue, its effect was studied on an in-vitro model of differentiation of pre-adipocytes into mature adipocytes. It should be clarified here that adipocytes are fully differentiated cells. […] Besides increase in cell volume, the only way to gain weight in vivo is by generating new adipocytes from pre-adipocytes by differentiation. Swiss 3T3-F442A murine pre-adipocytes were grown in DMEM (GIBCO, USA) with 10% calf serum. To induce differentiation into mature adipocytes, confluent cell cultures were maintained in DMEM supplemented with 10% fetal bovine serum (FBS) for six days, either in the presence or in the absence of AS101 (0.2 micrograms/ml). The cultures were then stained with oil red, which specifically stains the fat droplets within the cells.

6-week-old mice = details: cited from earlier work
[3] = test system: liver tissue of ob/ob mice; experiment: Microscopic examination of liver tissue of ob/ob mice after 18 days of AS101 treatment; assay type: in vivo; details: 18 days AS101 treatment, vs control mice, FIG. 4
Source text: Following 18 days treatment of the ob/ob mice with AS101 as described in Example 1, the animals were sacrificed. Samples of liver tissue were taken, fixed with formaldehyde and tissue slices were examined microscopically (FIG. 4).

In the case of `Cl[TeH]1(Cl)(Cl)OCCO1` [AS101, ammonium trichloro(dioxoethylene-O,O′)tellurate], the body weight ([1]; female mice on high fat diet, AS101 0.5 mg/kg body weight in saline injected daily, vs saline control, FIG. 5) is reported as “reduced significantly and continued to drop through the entire study”, the food intake ([1]; normal mice rendered obese by high-fat diet, AS101 by daily injections) is reported as “reduction of food intake” and the body weight gain (ob/ob mice; female ob/ob mice, AS101 7 mg/L in drinking water (0.25 mg/kg body weight per 24 h), 18 days, vs Control group, FIG. 1) is reported as “did not gain weight significantly”. For the same compound, the “reduction of food consumption, on the average” value (ob/ob mice; female ob/ob mice, AS101 7 mg/L in drinking water, daily food consumption, p<0.02, n=16, FIG. 2) was 26±7%, the blood glucose (ob/ob mice; ob/ob mice, tail blood on the last day of treatment (18 days), AS101 7 mg/L in drinking water, FIG. 3) was “statistically significant (p<0.05) reduction” and the “differentiation of pre-adipocytes into mature adipocytes (fat droplets)” value [2] was “inhibited the differentiation”. The LD50 (6-week-old mice) was 300 μg/25 g of body weight, the LD50 (6-week-old mice; same value re-expressed) was 12 mg/kg body weight and the “number and size of adipocytes in liver tissue” value [3] was “extensive reduction in the number of adipocytes and in their size”.
